US20250002493A1, “PYRIDONE COMPOUND AND PREPARATION METHOD THEREFOR, PHARMACEUTICAL COMPOSITION AND USE” (NANJING CHINA-AUSTRALIA INSTITUTE OF TRANSLATIONAL MEDICINE …, priority 2022, published 2025)

Columns and labels:
[1] = test system: MDA-MB-231 cancer cells; assay: Inhibitor-induced apoptosis, flow cytometry with Annexin V and propidium iodide; assay type: cell-based, human; conditions: 3 hours
Procedure: After treating the cells with 10 nM and 100 nM concentrations of the compounds for 3 hours, the induction of apoptosis was analyzed using flow cytometry with Annexin V and propidium iodide staining.

[2] = test system: MDA-MB-231 human breast cancer cells; assay: WST-8 cell proliferation assay, MDA-MB-231; assay type: cell-based; conditions: 72 hours
Procedure: (§1) The effects of the compounds provided by the present invention on the proliferation of different cancer cell lines were tested using the WST-8 assay kit. This method is based on the reduction of WST-8 by dehydrogenase in live cells to form a highly water-soluble yellow Formazan dye. Cells were seeded in a 96-well plate and cultured with the test compounds at 37° C. under 5% CO2 for 72 hours. Afterwards, 10% (v/v) WST-8 was added, and the samples were incubated for an additional 2-3 hours. The absorbance of the samples was measured at 450 nm using a Tecan microplate reader, and the concentration of the compound that inhibited 50% of cell proliferation (IC50, nM) was calculated. The activity of the compounds provided by the present invention was determined in three cancer cell lines: MDA-MB-231 human breast cancer cells, SK-OV-3 human ovarian cancer cells, and PANC1 human pancreatic cancer.

[3] = target: BIR3 domain of human cIAP1 (residues 255-364) (Homo sapiens (Human), UniProt Q13490); assay: Fluorescence polarization competitive binding to cIAP1 BIR3; conditions: FP, peptide probe 5 nM, cIAP1 BIR3 5 nM, 1 hour room temperature
BIR3 domain of human cIAP1 (residues 255-364), sequence (Q13490 255-364): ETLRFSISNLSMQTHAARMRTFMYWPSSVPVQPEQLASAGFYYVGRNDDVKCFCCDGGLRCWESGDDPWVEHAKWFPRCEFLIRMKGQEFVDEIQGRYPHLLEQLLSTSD
Procedure: (§2) The binding affinity of the compounds provided by the present invention to IAP proteins was determined using a fluorescence polarization method (Nikolovska-Colesak et al, Anal. Biochem. 2004, 332:261-73). The recombinant BIR3 domains of human XIAP (residues 238-358), human cIAP1 (residues 255-364) and human cIAP2 (residues 236-342) fusing GST-tags were expressed in E. coli and purified using glutathione agarose 4B affinity chromatography and gel filtration chromatography. A 5-Fam fluorescently modified peptide probe (AbuRPFK(5-Fam)-NH2) was used to test the competitive binding ability of the compounds to the BIR3 domains of XIAP, cIAP1 and cIAP2. The peptide probe (5 nM), XIAP BIR3 (30 nM) or cIAP1 BIR3 (5 nM) or cIAP2 BIR3 (10 nM), and serial diluted compounds were mixed in a test buffer (100 mM potassium phosphate pH 7.5, 100 μg/ml bovine gamma globulin, 0.02% sodium azide, and 1 mM DTT). After incubating the samples at room temperature for 1 hour, the fluorescence polarization values were read using a Tecan microplate reader (FP excitation wavelength 485 nm, […] wavelength 530 nm). The IC50 value was obtained by fitting the curve using nonlinear least square regression with the Graphpad Prism software. The inhibition constant Ki, values were calculated using the Equation Ki, [I]50/([L]50/Kd+[P]0/Kd+1).

[4] = target: BIR3 domain of human cIAP2 (residues 236-342) (Homo sapiens (Human), UniProt Q13489); assay: Fluorescence polarization competitive binding to cIAP2 BIR3; conditions: FP, peptide probe 5 nM, cIAP2 BIR3 10 nM, 1 hour room temperature
BIR3 domain of human cIAP2 (residues 236-342), sequence (Q13489 236-342): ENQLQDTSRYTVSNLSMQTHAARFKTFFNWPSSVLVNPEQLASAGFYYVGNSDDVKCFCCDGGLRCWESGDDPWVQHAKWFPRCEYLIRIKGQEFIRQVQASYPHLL
Procedure: as §2

[5] = test system: SK-OV-3 human ovarian cancer cells; assay: WST-8 cell proliferation assay, SK-OV-3; assay type: cell-based; conditions: 72 hours, read-out: SKOV-3 IC50
Procedure: as §1

[6] = target: BIR3 domain of human XIAP (residues 238-358) (Homo sapiens (Human), UniProt P98170); assay: Fluorescence polarization competitive binding to XIAP BIR3; conditions: FP, peptide probe 5 nM, XIAP BIR3 30 nM, 1 hour room temperature
BIR3 domain of human XIAP (residues 238-358), sequence (P98170 238-358): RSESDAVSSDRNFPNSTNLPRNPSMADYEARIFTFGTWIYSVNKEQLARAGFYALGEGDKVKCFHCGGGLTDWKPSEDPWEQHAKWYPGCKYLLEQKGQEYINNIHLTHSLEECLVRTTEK
Procedure: as §2

[7] = test system: PANC1 human pancreatic cancer; assay: WST-8 cell proliferation assay, PANC1; assay type: cell-based; conditions: PANC-1, 72 hours
Procedure: as §1

`CN[C@@H](C)C(=O)N[C@H](C(=O)N1CCc2[nH]c(=O)c(Cc3ccc(F)cc3F)cc21)C(C)(C)C` [Compound I-4-2] was tested, and the “Proportion of apoptotic cells” value ([1]; Drug concentration 10 nM) was 41%, the “Proportion of apoptotic cells” value ([1]; Drug concentration 100 nM) was 54% and the IC50 [2] was 4 nM. It also gave a Ki [3] of 1.3 nM, a Ki [4] of 2.4 nM and an IC50 [5] of 1 nM. The Ki [6] was 9.4 nM and the IC50 [7] was 16 nM.
